# Measurements reported in patent publication US20240239801A1, “PYRIMIDO[5,4,D]PYRIMIDINE COMPOUNDS, COMPOSITIONS COMPRISING THEM AND USES THEREOF” (Université de Montréal, priority 2021, published 2024).
# Assays:
# HCT116 pERK = experiment: Phospho-ERK inhibition, AlphaLISA SureFire Ultra p-ERK 1/2; assay type: cell-based, human; details: FIG. 1; RAS-mutant HCT116 cells
# In short: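 Cells plated in RPMI-1640 with 5% FBS, held overnight, then exposed 1 h to ten-point compound dilutions (top 30 or 10 μM down to 0.33 nM; 0.5% DMSO). Lysates read for p-ERK1/2 (Thr202/Tyr204) by AlphaLISA; % inhibition relative to DMSO after subtracting a 1 μM trametinib background; IC50 from four-parameter fit.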
# [1] = system: RAS-mutant HCT-116 cells pERK/pMEK; experiment: Immunoblot analysis of pERK and pMEK; assay type: cell-based, human; details: FIG. 2, 1 h treatment
# Protocol: For immunoblotting analysis, 500,000 HCT-116 cells were plated in 1 mL of complete RPMI-1640 growth medium in 24-well flat-bottomed transparent dishes (Costar). Cells were maintained overnight at 37° C. under 5% CO2 before treatment with compounds' dilution series for one hour. Cells were then washed once in PBS and lized in 250 μL of Igepal Lysis Buffer (50 mM Tris-HCl pH 7.5, 150 mM NaCl, 1% Igepal-CA630, 1 mM EDTA, 10% Glycerol) supplemented with Leupeptin, Aprotinin, PMSF, phosphatase inhibitor cocktail (Sigma) and Na3VO4 at 4° C. for 15 minutes with gentle rocking. Cell extracts were then cleared by centrifugation at 20,000 g at 4° C. for 10 minutes. Cleared lysates were then transferred on ice in fresh tubes and then boiled in sample loading buffer (100 mM Tris-HCl pH 6.8, 4% SDS, 0.2% bromophenol blue, 20% glycerol, 200 mM β-mercaptoethanol) for 5 minutes prior to fractionation by SDS-PAGE and transfer to nitrocellulose membranes (PALL). […]
compound,measurement,setting,value
"CCCS(=O)(=O)Nc1ccc(F)c(C(=O)c2c[nH]c3ncc(Cl)cc23)c1F [PLX4720, reference compound]",YMIN of pERK IC50 dose response curve,HCT116 pERK,~−600%
same,paradoxical induction of pERK or pMEK signaling (immunoblot),[1],induces the pathway
